In patent US8865725B2, “Substituted imidazopyrimidin-5(6H)-ones as allosteric modulators of MGLUR5 receptors” (Vanderbilt University, priority 2011, dated 2014):
Like-named read-outs stand apart in the source and are kept apart here.

Assays:
[1] = system: amphetamine-induced hyperlocomotion; experiment: Reversal of amphetamine-induced hyperlocomotion; type: in vivo, male Sprague-Dawley rats; conditions: test compound by oral gavage in 20% HP-beta-CD; amphetamine sulfate 1 mg/kg sc; FIG. 4
Method: Locomotor activity was assessed as mean distance traveled (cm) in standard 16×16 photocell testing chambers measuring 43.2 cm (Length)×43.2 cm (Width)×30.5 cm (Height) (Med Associates, St. Albans, Vt.). Animals were habituated to individual activity chambers for at least 30 min prior to drug administration. Following administration of drug or vehicle, activity was recorded for a 90 minute time period. Data was expressed as the mean (±SEM) distance traveled recorded in 5 min intervals over the test period. The data was analyzed using repeated measures analysis of variance (ANOVA) followed by post-hoc testing using Dunnett's test, when appropriate. A difference was considered significant when p≦0.05. […]
The animals were habituated in Smart Open Field locomotor activity test chambers (Hamilton-Kinder, San Diego, Calif.) with 16×16 photobeams to automatically record locomotor activity for 30 min and then dosed with vehicle or test compound. […] At 60 min, all rats were injected subcutaneously with 1 mg/kg amphetamine or vehicle and then monitored for an additional 60 min. Animals are monitored for a total of 120 minutes. Data are expressed as changes in ambulation defined as total number of beam breaks per 5 min periods.
The data for the dose-response studies were analyzed by a between-group analysis of variance. […]

human mGluR5a receptor = human mGluR5a receptor (Homo sapiens, UniProt P41594); experiment: Cell-based functional assay (Ca2+ mobilization, FDSS) for positive allosteric modulation of mGluR5; conditions: for EC50: HEK cells transfected with human mGluR5a (H10H or H12H), potentiation in presence of EC20 glutamate; for Emax: maximum % effect in concentration-response curve, as percent of response to maximally effective glutamate concentration
Method: The mGluR5 activity was determined using the metabotropic glutamate receptor activity assays in human embryonic kidney cells as described herein, wherein the human embryonic kidney cells were transfected with human mGluR5. The compounds in Table I were synthesized with methods identical or analogous to those shown herein. The Synthetic Route Reference indicated in Table I refers to the Reaction Scheme number described above. The requisite starting materials were commercially available, described in the literature, or readily synthesized by one skilled in the art of organic synthesis.
Human mGluR5a cDNA in pCMV6-XL6 mammalian expression plasmid was purchased from OriGene Technologies, Inc. (catalogue number SC326357) and subcloned into pcDNA3.1(−). […] Monoclones were named for the species (“H” for human) plus the location on the plate (e.g. “10H”).
HEK cells transfected with the human mGluR5a receptor (H10H or H12H cell line) were plated at 15,000 cells/well in clear-bottomed poly-D-lysine-coated assay plates (BD Falcon) in glutamate-glutamine-free growth medium and incubated overnight at 37° C. and 5% CO2. Cell-lines used were either the H10H or H12H cell-lines expressing the human mGluR5 receptor. The following day, the growth medium was removed and the cells were washed with assay buffer containing 1× Hank's balanced salt solution (Invitrogen, Carlsbad, Calif.), 20 mM HEPES, 2.5 mM probenecid, pH 7.4 and left with 20 μL of this reagent. Following this step, the cells were loaded with calcium indicator dye, fluo-4 AM, to a final concentration of 2 μM and incubated for 40-45 min at 37° C. The dye solution was removed and replaced with assay buffer. Cell plates were held for 10-15 min at room temperature and were then loaded into the Functional Drug Screening System 6000 (FDSS 6000, Hamamatsu, Japan).
After establishment of a fluorescence baseline for about 3 seconds, the compounds of the present invention were added to the cells, and the response in cells was measured. 2.3 minutes later an EC20 concentration of the mGluR5 receptor agonist glutamate was added to the cells, and the response of the cells was measured for about 1.7 minutes. All test compounds were dissolved and diluted to a concentration of 10 mM in 100% DMSO and then serially diluted into assay buffer for a 2× stock solution in 0.6% DMSO; stock compounds were then added to the assay for a final DMSO concentration of 0.3% after the first addition to the assay well. Calcium fluorescence measures were recorded as fold over basal fluorescence; raw data was then normalized to the maximal response to glutamate.
The concentration-response curves of compounds of the present invention, obtained in the presence of EC20 of mGluR5 receptor agonist glutamate to determine positive allosteric modulation, were generated using Microsoft Excel with IDBS XLfit add-ins. The raw data file containing all time points was used as the data source in the analysis template. This was saved by the FDSS as a tab-delimitted text file. Data were normalized using a static ratio function (F/F0) for each measurement of the total 350 values per well divided by each well's initial value. Data was then reduced as to peak amplitudes (Max—Initial Min) using a time range that starts approximately 1 second after the glutamate EC20 addition and continues for approximately 40 seconds. This is sufficient time to capture the peak amplitude of the cellular Calcium response. Individual amplitudes were expressed as % EMax by multiplying each amplitude by 100 and then dividing the product by the mean of the amplitudes derived from the glutamate ECMax-treated wells. pEC50 values for test compounds were generated by fitting the normalized values versus the log of the test compound concentration (in mol/L) using a 4 parameter logistic equation where none of the parameters were fixed.

human mGluR5a receptor, sequence (P41594 21-1180 isoform P41594-2 limits assumed): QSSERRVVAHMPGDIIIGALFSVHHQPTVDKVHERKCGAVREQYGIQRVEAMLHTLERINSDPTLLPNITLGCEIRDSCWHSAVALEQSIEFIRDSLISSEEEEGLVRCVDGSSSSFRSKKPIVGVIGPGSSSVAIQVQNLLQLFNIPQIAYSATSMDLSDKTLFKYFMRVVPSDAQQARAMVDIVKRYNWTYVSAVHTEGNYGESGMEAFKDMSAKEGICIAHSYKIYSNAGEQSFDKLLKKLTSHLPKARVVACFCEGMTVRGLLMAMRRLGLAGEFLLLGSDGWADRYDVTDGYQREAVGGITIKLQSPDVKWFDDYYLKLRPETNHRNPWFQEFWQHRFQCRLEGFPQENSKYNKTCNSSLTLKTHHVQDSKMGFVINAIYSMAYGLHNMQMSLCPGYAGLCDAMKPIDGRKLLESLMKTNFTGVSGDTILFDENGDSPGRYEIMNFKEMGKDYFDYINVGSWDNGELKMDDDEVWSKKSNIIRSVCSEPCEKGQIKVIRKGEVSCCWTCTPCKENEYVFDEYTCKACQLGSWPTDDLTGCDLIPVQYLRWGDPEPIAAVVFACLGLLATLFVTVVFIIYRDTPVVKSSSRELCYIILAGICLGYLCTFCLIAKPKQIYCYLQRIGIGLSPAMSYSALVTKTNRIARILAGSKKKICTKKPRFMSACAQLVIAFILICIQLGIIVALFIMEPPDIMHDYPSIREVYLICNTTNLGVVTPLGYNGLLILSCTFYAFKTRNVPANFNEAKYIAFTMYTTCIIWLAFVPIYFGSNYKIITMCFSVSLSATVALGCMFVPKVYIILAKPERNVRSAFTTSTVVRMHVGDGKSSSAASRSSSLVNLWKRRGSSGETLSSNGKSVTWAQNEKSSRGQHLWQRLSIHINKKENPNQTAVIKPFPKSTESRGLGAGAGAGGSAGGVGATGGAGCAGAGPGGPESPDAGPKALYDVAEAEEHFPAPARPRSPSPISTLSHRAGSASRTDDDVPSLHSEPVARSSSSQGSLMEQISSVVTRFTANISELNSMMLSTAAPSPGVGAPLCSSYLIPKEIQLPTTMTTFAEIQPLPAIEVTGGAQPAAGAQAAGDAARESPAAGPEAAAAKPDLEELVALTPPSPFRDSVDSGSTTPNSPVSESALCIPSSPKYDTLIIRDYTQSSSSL

Row | SMILES | reversal of amphetamine-induced hyperlocomotion [1] | EC50 (human mGluR5a receptor; concentration in mol/L, read-out: pEC50 (converted)) [nM] | EC50 (human mGluR5a receptor; read-out: EC50) [nM] | Emax (human mGluR5a receptor) [%] | melting point [°C]
1 | O=C1N(c2ccc(F)cc2)CCc2nc(COc3ccccc3)cn21 [6-(4-fluorophenyl)-2-(phenoxymethyl)-7,8-dihydroimidazo[1,2-c]pyrimidin-5(6H)-one] | Dose-dependent results for reversal of amphetamine-induced hyperlocomotion | – | – | – | –
2 | Cc1cc(N2CCc3nc(COc4ccccc4)cn3C2=O)ncc1F [compound 40] | – | 269 | 351 | 61 | 196.5
3 | O=C1N(c2ccc(F)cc2)CCc2nc(COc3ccccc3)c(Cl)n21 [compound 42, 3-chloro-6-(4-fluoro-phenyl)-2-phenoxymethyl-7,8-dihydro-6H-imidazo[1,2-c]pyrimidin-5-one] | – | – | > 30200 | 17 | 200.1
4 | Cc1c(COc2ccccc2)nc2n1C(=O)N(c1ccc(F)cc1)CC2 [compound 44, 6-(4-fluoro-phenyl)-3-methyl-2-phenoxymethyl-7,8-dihydro-6H-imidazo[1,2-c]pyrimidin-5-one] | – | – | > 30200 | 20 | 160.4
